“And” between values parts separate entries of the source, which are not always exact repeats. Equal entries are not always repeated. Where two headings read alike, the source gives them in different places.
How the values were obtained:
[1] = Parallelogram approach estimation of AUC-GA in human; settings: predicted ratio × measured human AUC-AA
Description: The parallelogram approach representing inter-species comparison of in vivo dose and the use of in vitro data is shown in Fig. 1 for the metabolic transformation of R to RX, which is referred to as the metabolism of AA to GA in the present study. This figure can be formulated to Eq. 1 as described in Methods (cf. Eq. 5), where the superscripts H and R represent the corresponding AUC or EE in human and rat, respectively.1 AUC^H−RX/AUC^R−RX=EE^H−R→RX/EE^H−RXel/EE^R−R→RX/EE^R−RXel×AUC^H−R/AUC^R−R
The in vitro data on enzyme kinetics from human and rat (Table 1), and the in vivo data on AUC of AA and of GA in rat (Table 2) were used to calculate the predictive value of AUC-GA per AUC-AA in human, according to the parallelogram approach (cf. Methods, Eq. 5). This was calculated to 0.087 (Table 3). […] It was observed that the AUC-GA in human and rat predicted by the parallelogram approach and from measured Hb adduct levels, respectively, differed with about a factor of 3 (cf. Tables 2 and 3). This difference is within the variability range of AUC-GA for respective species calculated from different in vivo studies. […]

[2] = cited from earlier work
in vitro = settings: for Vmax (SE), GA elimination: GA 2–50 μM, 10 min, pH 7.5, 37 °C, n = 7 × 2; for EE = Vmax/Km, GA elimination / Km: male, pH 7.5
Protocol: As the parameters Vmax and Km were determined by the same experimental setup, the enzyme efficiency (EE) for the metabolic reactions is calculated as the ratio of Vmax to Km.
The metabolic system was similar to that we used in our earlier work[20] and is described in Supplementary information Note 1. […] The mixture was centrifuged (500 × g, 4 min) and supernatant treated as described below.
The supernatant (300 μL) obtained following centrifugation in the metabolism experiments was added to a cob(I)alamin solution (200 μL) in water. The reaction was continued under argon atmosphere for 20 min, and subsequently a gentle stream of air was passed to oxidize any reduced cobalamin. Analysis of the solution was performed by liquid chromatography tandem mass spectrometry (LC-MS/MS). The MS was operated using electrospray positive-ionization (ESI^+) and quantification performed using multiple reaction monitoring (MRM) mode. Method for preparation of cob(I)alamin solution from hydroxocobalamin and analysis of the generated alkylcobalamins, GA-Cbl from GA and PO-Cbl from PO, were similar to our earlier work[8] and are described under Supplementary information Notes 2–4.
The area under MRM peaks from GA-Cbl and PO-Cbl were measured with Analyst software version 1.5 from AB Sciex. Using calibration curve obtained for GA using inactivated S9 as matrix, the concentrations of GA in the metabolism studies were determined as described earlier by us[8]. The metabolic data was used to obtain Lineweaver-Burk plot for graphical representation of studied enzyme kinetics. Apparent values for the respective maximum velocity (Vmax) of the enzymatic conversion, the Michaelis constant (Km) and standard error were estimated by nonlinear fitting using the Hill function in Origin version 2015 (OriginLab, Northampton, MA, USA).
To human or rat liver S9 fraction (150 μL, 1–5 mg proteins) at 4 °C in a 2 mL vial with a screw-tight cap were added aqueous KCl (0.15 M, 300 μL), MgSO4 (80 mM, 150 μL), glucose-6-phosphate (50 mM, 150 μL) and NADP (40 mM, 150 μL), and the volume was made up to 1.5 mL with pH 7.5 phosphate buffer. The mixture was incubated for 5 min at 37 °C prior to the addition of the substrate.

NC(=O)C1CO1 (racemic) [GA, rac-Glycidamide]
AUC-GA estimated from the parallelogram approach [1]: 18 nM·h/μg AA per kg bw and 18^a nM·h/μg AA per kg bw | AUC-GA ([2]; Rat (male F344), 500 and 2000 μg AA/kg bw and day in drinking water, one week, n = 6, from Hb adducts): 18 nM·h/μg AA per kg bw and 18 ± 1 nM·h/μg AA per kg bw | AUC of GA ([2]; SD rat (male), subchronic intraperitoneal AA, Hb adducts on cysteine site): 16.3 nM·h per μg AA per kg bw | AUC-GA ([2]; male F344 rats, single dose 0.1 mg AA/kg bw, Hb adducts, ref Tareke et al. (2006)): 14 nM·h/ μg AA per kg bw | Vmax (SE), GA elimination (in vitro; Human S9): 1.6 (0.7) nmol·mg protein^−1·min^−1 | Vmax (SE), GA elimination (in vitro; Rat S9 (male SD)): 0.26 (0.02) nmol·mg protein^−1·min^−1 | EE of elimination of GA, human compared to rat (times faster in human) (in vitro; liver S9, human vs. rat): ca. 1.5 times | EE of oxidative formation of GA, rat compared to human (times faster in rat) (in vitro; liver S9, rat vs. human): ca. 4 times | EE ratio of AA → GA to that of GAel, rat compared to human (times higher in rat) (in vitro; liver S9, rat vs. human): ca. 6 times | EE = Vmax/Km, GA elimination (in vitro; Sprague-Dawley, rat): 43 μL·mg protein^−1·min^−1 | Km (in vitro; Sprague-Dawley, rat): 6 µM | EE = Vmax/Km, GA elimination (in vitro; human): 62 μL·mg protein^−1·min^−1 | Km (in vitro; human): 26 µM

Source: paper PMC5730592, “Parallelogram based approach for in vivo dose estimation of genotoxic metabolites in humans with relevance to reduction of animal experiments” (Scientific Reports, 2017)
